Experimental findings from patent US11834440B2, “Beta-lactam derivatives for the treatment of diseases” (Insilico Medicine IP Limited, priority 2021, dated 2023) are described below.

Some results are limits rather than exact numbers.

Broadly, the IC50 is the concentration needed to halve the response being measured.

The target in the assay is QPCTL (Homo sapiens (Human), UniProt Q9NXS2). The experiment in a line: QPCTL inhibition, SensoLyte Green Glutaminyl Cyclase Activity Assay. As to conditions: 0.8 nM 2x enzyme solution, 45 min at 37° C., 50 mM Tris pH 8.0, 1% DMSO. The assay is classed as biochemical. Here is the method: Preparation of working solution: 2×Glutaminyl Cyclase substrate was diluted in assay buffer to […]. 2×enzyme solution and QPCTL was diluted in assay buffer to 0.8 nM. Glutaminyl Cyclase Developer was diluted in assay buffer to 1×(containing 10 mM 1-Benzyl-Imidazole). Serial dilution of test compounds was performed in DMSO. The final DMSO concentration in 100 μl reaction was 1%. The assay buffer was 50 mM Tris, pH 8.0, 0.01% BSA.
QPCTL, sequence (Q9NXS2 whole entry, species assumed): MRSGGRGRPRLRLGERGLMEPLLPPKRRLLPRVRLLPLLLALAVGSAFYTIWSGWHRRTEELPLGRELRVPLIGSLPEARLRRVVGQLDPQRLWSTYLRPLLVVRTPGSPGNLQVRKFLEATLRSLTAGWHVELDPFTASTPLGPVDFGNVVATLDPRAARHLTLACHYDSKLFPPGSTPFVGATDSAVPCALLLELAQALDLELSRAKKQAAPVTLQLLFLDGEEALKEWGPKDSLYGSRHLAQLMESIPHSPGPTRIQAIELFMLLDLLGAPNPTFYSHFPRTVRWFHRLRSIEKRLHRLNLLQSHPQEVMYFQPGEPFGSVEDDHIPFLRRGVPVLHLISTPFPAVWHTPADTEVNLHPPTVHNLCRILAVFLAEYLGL
Procedure: 50 μL of 2×Glutaminyl Cyclase substrate solution was added into the assay plate followed by 50 μL of 2×enzyme solution. The plate was centrifuged for 1 min at 1000 rmp. Next the plate was incubated for 45 minutes at 37° C. This was followed by the additional of 50 μL of the prepared Glutaminyl Cyclase developer and incubated for additional 30 min at 37° C. Results were read on SpectraMax Paradigm detecting with emission at Ex/Em=490 nm/520 nm.
A Z′ value was calculated for each assay plate. The Z′ value must be >0.5 or the plate was disqualified. […] Results were calculated using GraphPad Prism 7 software is used for IC50 determination.
With `C[C@H]1C(=O)N(c2ccc3[nH]cnc3c2)[C@H]1c1c(F)cc(N2CCC(F)(F)C2)cc1F` (racemic) [Compound 12CR, (cis and racemic)-1-(1H-benzo[d]imidazol-5-yl)-4-(4-(3,3-difluoropyrrolidin-1-yl)-2,6-difluorophenyl)-3-methylazetidin-2-one], the IC50 lay in the range of 2 to 25 nM.

`C=C1C(=O)N(c2ccc3[nH]cnc3c2)[C@H]1c1c(F)cc(OCCC(F)F)cc1F` (single isomer, unassigned) [Compound 22B] returned an IC50 below 2 nM.

On to `Cc1cc(-n2cnc(C(F)(F)F)c2)ccc1[C@@H]1[C@H](C2CC2)C(=O)N1c1ccc2[nH]cnc2c1` (single isomer, unassigned) [Compound 74A], for which the concentration for half-maximal inhibition (IC50) lay in the range of 25 to 1000 nM.

`Cc1cc(-c2ccc(C(F)(F)F)nn2)ccc1[C@H]1[C@@H](C2CC2)C(=O)N1c1ccc2[nH]cnc2c1` (single isomer, unassigned) [Compound 67B] returned a half-maximal inhibitory concentration (IC50) below 2 nM.

The compound `O=C1[C@H](C2COC2)[C@H](c2c(F)cc(OCCC(F)F)cc2F)N1c1ccc2[nH]cnc2c1` (single isomer, unassigned) [Compound 44B] returned an IC50 below 2 nM.

`Cc1nc(-n2cnc(C(F)(F)F)c2)ccc1[C@H]1[C@@H](C2CC2)C(=O)N1c1ccc2[nH]cnc2c1` (single isomer, unassigned) [Compound 72B] came in with an IC50 below 2 nM.

For `Cc1nc(-c2cc(F)c([C@H]3[C@@H](C)C(=O)N3c3ccc4[nH]cnc4c3)c(F)c2)cs1` (racemic) [Compound 10CR, (cis and racemic)-1-(1H-benzo[d]imidazol-5-yl)-4-(2,6-difluoro-4-(2-methylthiazol-4-yl)phenyl)-3-methylazetidin-2-one], the IC50 was in the range of 2 to 25 nM.

In turn, `C[C@@H]1C(=O)N(c2ccc3[nH]cnc3c2)[C@@H]1c1c(F)cc(N2CCC(F)(F)CC2)cc1F` (single isomer, unassigned) [Compound 30A] showed an IC50 above 1000 nM.

In turn, `O=C1[C@@H](O)[C@@H](c2c(F)cc(OCCC(F)F)cc2F)N1c1ccc2[nH]cnc2c1` (single isomer, unassigned) [Compound 8A] came in with a concentration for half-maximal inhibition (IC50) above 1000 nM.

As for `O=C1[C@H](C2CC2)[C@H](c2c(F)cc(-n3cc(C(F)(F)F)cn3)cc2F)N1c1ccc2[nH]cnc2c1` (single isomer, unassigned) [Compound 58B], the IC50 was below 2 nM.

The compound `O=C1N(c2ccc3[nH]cnc3c2)C(c2c(F)cc(OCCC(F)F)cc2F)C12CCC2` (racemic) [Compound 3, 2-(1H-benzo[d]imidazol-5-yl)-3-(4-(3,3-difluoropropoxy)-2,6-difluorophenyl)-2-azaspiro[3.3]heptan-1-one] yielded an IC50 of 25 to 1000 nM.

In turn, `Cc1nc(-c2cnn(C(F)(F)F)c2)ccc1[C@H]1[C@@H](C2CC2)C(=O)N1c1ccc2[nH]cnc2c1` (single isomer, unassigned) [Compound 68B] registered an IC50 below 2 nM.

Compound `C[C@H]1C(=O)N(c2ccc3[nH]cnc3c2)[C@H]1c1c(F)cc(-n2cc(C(F)(F)F)cn2)cc1F` (racemic) [Compound 28CR, (cis and racemic)-1-(1H-benzo[d]imidazol-5-yl)-4-(2,6-difluoro-4-(4-(trifluoromethyl)-1H-pyrazol-1-yl)phenyl)-3-methylazetidin-2-one] gave a half-inhibitory concentration (IC50) of 2 to 25 nM.

`Cc1noc(C)c1-c1cc(F)c([C@H]2[C@@H](C3CC3)C(=O)N2c2ccc3[nH]cnc3c2)c(F)c1` (single isomer, unassigned) [Compound 64B] gave an IC50 of 2 to 25 nM.

With `Cc1cc(-c2ccc(C(F)(F)F)nn2)ccc1[C@@H]1[C@H](C2CC2)C(=O)N1c1ccc2[nH]cnc2c1` (single isomer, unassigned) [Compound 67A], the 50% inhibitory concentration (IC50) lay within 25 to 1000 nM.

For `CC1(C)C(=O)N(c2ccc3[nH]cnc3c2)C1c1c(F)cc(OCCC(F)F)cc1F` (racemic) [Compound 2, 1-(1H-benzo[d]imidazol-5-yl)-4-(4-(3,3-difluoropropoxy)-2,6-difluorophenyl)-3,3-dimethylazetidin-2-one], the concentration for half-maximal inhibition (IC50) was above 1000 nM.

`O=C1[C@@H](C2CC2)[C@@H](c2c(F)cc(-c3cn(C(F)(F)F)nn3)cc2F)N1c1ccc2[nH]cnc2c1` (single isomer, unassigned) [Compound 50A] yielded a half-inhibitory concentration (IC50) of 25 to 1000 nM.

As to `O=C1[C@@H](C2CC2)[C@@H](c2c(F)cc(C3CC3)cc2F)N1c1ccc2[nH]cnc2c1` (single isomer, unassigned) [Compound 69A], the IC50 was in the range of 25 to 1000 nM.

`O=C1[C@@H](C2CC2)[C@@H](c2ccc(-c3cnn(C(F)(F)F)c3)nc2)N1c1ccc2[nH]cnc2c1` (single isomer, unassigned) [Compound 43A] came in with an IC50 of 25 to 1000 nM.

`O=C1[C@@H](C2CC2)[C@@H](c2c(F)cc(-n3ccc(C(F)(F)F)n3)cc2F)N1c1ccc2[nH]cnc2c1` (single isomer, unassigned) [Compound 48A] registered an IC50 of 2 to 25 nM.

`C=C1C(=O)N(c2ccc3[nH]cnc3c2)C1c1c(F)cc(OCCC(F)F)cc1F` (racemic) [Compound 22, (racemic)-1-(1H-benzo[d]imidazol-5-yl)-4-(4-(3,3-difluoropropoxy)-2,6-difluorophenyl)-3-methyleneazetidin-2-one] registered an IC50 below 2 nM.

For `O=C1[C@H](C2CC2)[C@H](c2c(F)cc(-c3ccc(C(F)(F)F)nn3)cc2F)N1c1ccc2[nH]cnc2c1` (single isomer, unassigned) [Compound 52B], the IC50 was below 2 nM.

`Cc1cc([C@H]2[C@@H](C3CC3)C(=O)N2c2ccc3[nH]cnc3c2)ccc1-c1cnn(C(F)(F)F)c1` (single isomer, unassigned) [Compound 57B]: the IC50 is below 2 nM.

With `C[C@H]1C(=O)N(c2ccc3[nH]cnc3c2)[C@H]1c1c(F)cc(N2CCC(F)(F)CC2)cc1F` (single isomer, unassigned) [Compound 30B], the concentration for half-maximal inhibition (IC50) lay in the range of 2 to 25 nM.

On to `Cc1cc(-n2cnc(C(F)(F)F)c2)ccc1[C@H]1[C@@H](C2CC2)C(=O)N1c1ccc2[nH]cnc2c1` (single isomer, unassigned) [Compound 74B], for which the concentration for half-maximal inhibition (IC50) is below 2 nM.

For the compound `CC[C@H]1C(=O)N(c2ccc3[nH]cnc3c2)[C@H]1c1c(F)cc(-c2cnn(C(F)(F)F)c2)cc1F` (single isomer, unassigned) [Compound 51B], the IC50 is below 2 nM.

For `O=C1[C@H](C2CC2)[C@H](c2c(F)cc(-c3cn(C(F)(F)F)cn3)cc2F)N1c1ccc2[nH]cnc2c1` (single isomer, unassigned) [Compound 49B], the IC50 was 2 to 25 nM.

On to `C[C@H]1C(=O)N(c2ccc3[nH]cnc3c2)[C@H]1c1ccc(OCCC(F)F)nc1` (racemic) [Compound 23CR, (cis and racemic)-1-(1H-benzo[d]imidazol-5-yl)-4-(6-(3,3-difluoropropoxy)pyridin-3-yl)-3-methylazetidin-2-one], for which the IC50 is 2 to 25 nM.

For `CC1C(=O)N(c2ccc3[nH]cnc3c2)C1c1c(F)cc(-c2cnn(C(F)(F)F)c2)cc1F` (racemic) [Compound 14, (cis and racemic)-1-(1H-benzo[d]imidazol-5-yl)-4-(2,6-difluoro-4-(1-(trifluoromethyl)-1H-pyrazol-4-yl)phenyl)-3-methyl azetidin-2-one], the IC50 was in the range of 2 to 25 nM.

The compound `Cc1oncc1-c1cc(F)c([C@H]2[C@@H](C3CC3)C(=O)N2c2ccc3[nH]cnc3c2)c(F)c1` (single isomer, unassigned) [Compound 63B] gave an IC50 below 2 nM.

As to `O=C1[C@@H](C2CC2)[C@@H](c2c(F)cc(-c3ccc(C(F)(F)F)nn3)cc2F)N1c1ccc2[nH]cnc2c1` [Compound 52A], the IC50 was in the range of 25 to 1000 nM.

For `O=C1[C@@H](C2CC2)[C@@H](c2c(F)cc(-c3cnccn3)cc2F)N1c1ccc2[nH]cnc2c1` [Compound 53A], the IC50 is above 1000 nM.

Consider `O=C1[C@@H](C2CC2)[C@@H](c2ccc(-c3cnn(C(F)(F)F)c3)cc2Cl)N1c1ccc2[nH]cnc2c1` (single isomer, unassigned) [Compound 75A], for which the IC50 lay within 25 to 1000 nM.

Compound `O=C1[C@H](C2CC2)[C@H](c2c(F)cc(C3CC3)cc2F)N1c1ccc2[nH]cnc2c1` (single isomer, unassigned) [Compound 69B] yielded a concentration for half-maximal inhibition (IC50) below 2 nM.

`Cc1ncc(-c2cc(F)c([C@H]3[C@@H](C)C(=O)N3c3ccc4[nH]cnc4c3)c(F)c2)s1` (racemic) [Compound 11CR, (cis and racemic)-1-(1H-benzo[d]imidazol-5-yl)-4-(2,6-difluoro-4-(2-methylthiazol-5-yl)phenyl)-3-methylazetidin-2-one] had a concentration for half-maximal inhibition (IC50) of 2 to 25 nM.

Take `Cc1cc(-c2cnn(C(F)(F)F)c2)ccc1[C@@H]1[C@H](C2CC2)C(=O)N1c1ccc2[nH]cnc2c1` (single isomer, unassigned) [Compound 56A]: the IC50 lay within 25 to 1000 nM.

On to `Cn1cc(-c2cc(F)c(C3CC(=O)N3c3ccc4[nH]cnc4c3)c(F)c2)cn1` (racemic) [Compound 9, 1-(1H-benzo[d]imidazol-5-yl)-4-(2,6-difluoro-4-(1-methyl-1H-pyrazol-4-yl)phenyl)azetidin-2-one], for which the concentration for half-maximal inhibition (IC50) was in the range of 25 to 1000 nM.

`O=C1[C@H](C2CC2)[C@H](c2c(F)cc(-n3ncc(C(F)(F)F)n3)cc2F)N1c1ccc2[nH]cnc2c1` (single isomer, unassigned) [Compound 60B]: the IC50 is below 2 nM.

As to `O=C1[C@@H](C2CC2)[C@@H](c2ccc(OCCC(F)F)nc2)N1c1ccc2[nH]cnc2c1` (single isomer, unassigned) [Compound 45A], the IC50 lay within 25 to 1000 nM.
